# Data reported in patent US20220340875A1, “METHODS OF CULTURING AND/OR EXPANDING STEM CELLS AND/OR LINEAGE COMMITTED PROGENITOR CELLS USING AMIDO COMPOUNDS” (IDEAYA BIOSCIENCES, INC., priority 2018, published 2022).
# Molecular target: T1, hAhR (Homo sapiens, UniProt P35869)
# T1 construct: Stably integrated DRE-luciferase cell lines were generated by transducing the both cell lines with Cignal XRE luciferase reporter (Qiagen) lentiviral particles; endogenous in cells
# T1 sequence (P35869 11-848): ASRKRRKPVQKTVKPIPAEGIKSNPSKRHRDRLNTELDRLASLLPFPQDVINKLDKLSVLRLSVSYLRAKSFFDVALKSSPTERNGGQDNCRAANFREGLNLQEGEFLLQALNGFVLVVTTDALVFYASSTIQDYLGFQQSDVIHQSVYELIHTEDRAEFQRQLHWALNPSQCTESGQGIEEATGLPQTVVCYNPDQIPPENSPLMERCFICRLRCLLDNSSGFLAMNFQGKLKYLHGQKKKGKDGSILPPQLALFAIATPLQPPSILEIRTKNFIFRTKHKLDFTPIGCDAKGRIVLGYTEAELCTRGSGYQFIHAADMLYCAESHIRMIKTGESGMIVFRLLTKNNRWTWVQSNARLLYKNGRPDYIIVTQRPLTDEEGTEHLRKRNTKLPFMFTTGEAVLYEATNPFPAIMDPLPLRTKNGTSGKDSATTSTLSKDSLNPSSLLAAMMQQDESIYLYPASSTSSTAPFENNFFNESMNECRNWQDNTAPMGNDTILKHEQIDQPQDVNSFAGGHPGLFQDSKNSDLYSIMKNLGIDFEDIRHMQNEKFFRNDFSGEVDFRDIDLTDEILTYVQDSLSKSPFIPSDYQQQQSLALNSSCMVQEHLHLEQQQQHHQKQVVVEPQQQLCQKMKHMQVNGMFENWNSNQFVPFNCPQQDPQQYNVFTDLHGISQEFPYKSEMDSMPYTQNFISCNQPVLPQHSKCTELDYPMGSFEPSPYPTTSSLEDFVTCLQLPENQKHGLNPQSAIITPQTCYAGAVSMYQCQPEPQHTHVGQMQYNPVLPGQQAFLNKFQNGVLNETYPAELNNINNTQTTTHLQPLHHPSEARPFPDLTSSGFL
# Assay: AhR DRE-luciferase reporter transcriptional assay, antagonist mode (TCDD-induced)
# Type: cell-based
# Settings: HEPG2 DRE-Luc cells, 3 nM TCDD, 24 hour incubation, relative IC50
# Experimental: HEPG2 and HEPA1C1C7 cells were maintained in MEM and αMEM without nucleosides supplemented with 10% heat inactivated FBS respectively. Stably integrated DRE-luciferase cell lines were generated by transducing the both cell lines with Cignal XRE luciferase reporter (Qiagen) lentiviral particles according to the manufacturer protocol. For both cell lines stably integrated reporter cell lines were selected for the presence of 2 µg/mL puromycin. Following selection of stably integrated cell line pools, clonal cell lines were isolated by limiting dilution in 96-well plates. Transcriptional assays were performed by seeding 100 μL of cells at a density of 250,000 or 100,000 cells/mL, for HEPG2 and HEPA1C1C7 DRE-Luc cells respectively, into 96-well cell culture plates in OptiMEM supplemented with 0.5% heat inactivated FBS and allowed to attach overnight. For modulator assays, the compounds were added in a semi-log dose response using a D300e Digital Dispenser (Tecan) followed normalization with vehicle (DMSO). Immediately following compound addition 10 μL of 2,3,7,8-Tetrachlorodibenzo-p-dioxin (TCDD) was added to the cells to a final concentration of 3 nM or 0.3 nM for the HEPG2 and HEPA1C1C7 DRE-Luc cells respectively. Following 24 hour incubation the medium was removed and the cells were lysed in 25 μL of Reporter Lysis Buffer (Promega). Firefly luciferase activity was measured immediately following the addition of 50 μL Luciferase Assay Reagent (Promega). The percent maximal activity for each point was determined using the following equasion: (RLUsample-RLUvehicle−TCDD)/(RLUvehicle+TCDD RLUvehicle−TCDD)*100. The relative IC50, defined as the compound concentration required to reduce the TCDD induced response between the top and bottom plateau of each individual dose response curve by half, for each compound was determined using Prism 7 (GraphPad Software).
row,Structure (SMILES),IC50
1,"Cc1cc(N(C)C(=O)c2ccnn2C)c(F)cc1-c1ncc2nc(C(F)(F)F)cc(C)c2n1 [Example 179, N-(2-fluoro-5-methyl-4-(8-methyl-6-(trifluoromethyl)pyrido[3,2-d]pyrimidin-2-yl)phenyl)-N,1-dimethyl-1H-pyrazole-5-carboxamide]",200 to 500 nM
2,"Cc1cc(-c2ccc3cc(F)ccc3n2)cnc1NC(=O)c1ccnn1C [Example 042, N-(5-(6-fluoroquinolin-2-yl)-3-methylpyridin-2-yl)-1-methyl-1H-pyrazole-5-carboxamide]",500 to 1000 nM
3,"Cc1cc(-c2cc(C)c3ccccc3n2)ccc1NC(=O)OC(C)(C)C [Example 015, tert-butyl (2-methyl-4-(4-methylquinolin-2-yl)phenyl)carbamate]",1000 to 10000 nM
4,"Cc1cc(-c2ccc3cncc(Cl)c3c2)ccc1NC(=O)c1ccnn1C [Example 060, N-(4-(4-chloroisoquinolin-6-yl)-2-methylphenyl)-1-methyl-1H-pyrazole-5-carboxamide]",200 to 500 nM
5,"Cn1nccc1C(=O)Nc1ccc(-c2cnc3ccccc3n2)cc1 [Example 003, 1-methyl-N-(4-(quinoxalin-2-yl)phenyl)-1H-pyrazole-5-carboxamide]",500 to 1000 nM
6,"Cc1cc(-c2ccc3cc(F)ccc3n2)c(F)cc1NC(=O)c1ccnn1C [Example 067, N-(5-fluoro-4-(6-fluoroquinolin-2-yl)-2-methylphenyl)-1-methyl-1H-pyrazole-5-carboxamide]",500 to 1000 nM
7,"Cc1cc(-c2ccc3cc(C(F)(F)F)ccc3n2)ccc1NC(=O)c1ccnn1C [Example 001, 1-methyl-N-(2-methyl-4-(6-(trifluoromethyl)quinolin-2-yl)phenyl)-1H-pyrazole-5-carboxamide]",200 to 500 nM
8,"Cc1cc(-c2ccc3cc(Br)ccc3n2)ccc1NC(=O)c1ccnn1C [Example 064, N-(4-(6-bromoquinolin-2-yl)-2-methylphenyl)-1-methyl-1H-pyrazole-5-carboxamide]",200 to 500 nM
9,"Cc1cc(-c2ncc3nc(C(F)(F)F)cc(C)c3n2)ccc1N(C)C(=O)c1cc(C(=O)O)nn1CC#N [Example 197, 1-(cyanomethyl)-5-(methyl(2-methyl-4-(8-methyl-6-(trifluoromethyl)-pyrido[3,2-d]pyrimidin-2-yl)phenyl)carbamoyl)-1H-pyrazole-3-carboxylic acid]",1000 to 10000 nM
10,"Cc1cc(-c2ccc3cc(F)ccc3n2)ccc1NC(=O)c1ccccc1 [Example 023, N-(4-(6-fluoroquinolin-2-yl)-2-methylphenyl)benzamide]",500 to 1000 nM
11,"Cc1cc(-c2ncc3nc(C(F)(F)F)cc(C)c3n2)ccc1N(C)C(=O)c1ccnn1CC(C)(C)O [Example 224, 1-(2-hydroxy-2-methylpropyl)-N-methyl-N-(2-methyl-4-(8-methyl-6-(trifluoromethyl)pyrido[3,2-d]pyrimidin-2-yl)phenyl)-1H-pyrazole-5-carboxamide]",200 to 500 nM
12,"Cc1cc(-c2ccc3cc(C(N)=O)ccc3n2)ccc1NC(=O)c1ccnn1C [Example 074, 2-(3-methyl-4-(1-methyl-1H-pyrazole-5-carboxamido)phenyl)quinoline-6-carboxamide]",1000 to 10000 nM
13,"Cc1cc(-c2ccc3ccc(F)cc3n2)ccc1NC(=O)c1ccnn1C [Example 019, N-(4-(7-fluoroquinolin-2-yl)-2-methylphenyl)-1-methyl-1H-pyrazole-5-carboxamide]",200 to 500 nM
14,"Cc1cc(-c2ncc3cc(C(F)(F)F)ccc3n2)ccc1N(C)C(=O)c1nn(C)cc1C [Example 214, N,1,4-trimethyl-N-(2-methyl-4-(6-(trifluoromethyl)quinazolin-2-yl)phenyl)-1H-pyrazole-3-carboxamide]",200 to 500 nM

# Second part, the compound after the results:
row,IC50,Structure (SMILES)
1,< 200 nM,"Cc1cc(-c2ccc3cccc(F)c3n2)ccc1NC(=O)c1ccnn1C [Example 018, N-(4-(8-fluoroquinolin-2-yl)-2-methylphenyl)-1-methyl-1H-pyrazole-5-carboxamide]"
2,< 200 nM,"Cc1cc(-c2ccc3cc(F)cc(Br)c3n2)ccc1NC(=O)c1ccnn1C [Example 051, N-(4-(8-bromo-6-fluoroquinolin-2-yl)-2-methylphenyl)-1-methyl-1H-pyrazole-5-carboxamide]"
3,< 200 nM,"Cn1nccc1C(=O)Nc1ccc(-c2ncc3nc(C(F)(F)F)ccc3n2)cc1F [Example 137, N-(2-fluoro-4-(6-(trifluoromethyl)pyrido[3,2-d]pyrimidin-2-yl)phenyl)-1-methyl-1H-pyrazole-5-carboxamide]"
4,< 200 nM,"COc1cc(C(=O)N(C)c2ccc(-c3ncc4cc(C(F)(F)F)ccc4n3)cc2C)ccn1 [Example 143, 2-Methoxy-N-methyl-N-(2-methyl-4-(6-(trifluoromethyl)quinazolin-2-yl)phenyl)isonicotinamide]"
5,< 200 nM,"Cc1c(N(C)C(=O)c2ccnn2C)ccc(-c2ncc3nc(C(F)(F)F)cc(C)c3n2)c1F [Example 175, N-(3-fluoro-2-methyl-4-(8-methyl-6-(trifluoromethyl)pyrido[3,2-d]pyrimidin-2-yl)phenyl)-N,1-dimethyl-1H-pyrazole-5-carboxamide]"
6,< 200 nM,"Cc1cc(-c2ncc3cc(C(F)(F)F)ccc3n2)ccc1N1CCNC1=O [Example 141, 1-(2-methyl-4-(6-(trifluoromethyl)quinazolin-2-yl)phenyl)imidazolidin-2-one]"
7,< 200 nM,"Cc1cc(-c2ccc3nc(C(F)(F)F)cc(C)c3n2)ccc1N(C)C(=O)c1ccnn1C [Example 106, N,1-dimethyl-N-(2-methyl-4-(8-methyl-6-(trifluoromethyl)-1,5-naphthyridin-2-yl)phenyl)-1H-pyrazole-5-carboxamide]"
8,< 200 nM,"Cc1cc(C(=O)N(C)c2ccc(-c3ncc4cc(C(F)(F)F)ccc4n3)cc2C)c(C)cn1 [Example 126, N,2,5-trimethyl-N-(2-methyl-4-(6-(trifluoromethyl)quinazolin-2-yl)phenyl)isonicotinamide]"
9,< 200 nM,"Cc1cc(-c2nc3cc(F)ccc3s2)ccc1NC(=O)c1ccnn1C [Example 099, N-(4-(5-fluorobenzo[d]thiazol-2-yl)-2-methylphenyl)-1-methyl-1H-pyrazole-5-carboxamide]"
10,< 200 nM,"COc1cnccc1C(=O)Nc1ccc(-c2ncc3nc(C(F)(F)F)cc(C)c3n2)cc1C [Example 184, 3-methoxy-N-(2-methyl-4-(8-methyl-6-(trifluoromethyl)pyrido[3,2-d]pyrimidin-2-yl)phenyl)isonicotinamide]"
11,< 200 nM,"Cc1cc(-c2ccc3cc(C(F)(F)F)cc(C)c3n2)ccc1NC(=O)c1ccnn1C [Example 203, 1-methyl-N-(2-methyl-4-(8-methyl-6-(trifluoromethyl)quinolin-2-yl)phenyl)-1H-pyrazole-5-carboxamide]"
12,< 200 nM,"Cc1cc(-c2ncc3cc(C(F)(F)F)ccc3n2)ccc1NC(=O)c1ccnn1C [Example 112, 1-methyl-N-(2-methyl-4-(6-(trifluoromethyl)quinazolin-2-yl)phenyl)-1H-pyrazole-5-carboxamide]"
13,< 200 nM,"Cc1cc(-c2ncc3nc(C(F)(F)F)ccc3n2)ccc1NC(=O)c1ccnn1C [Example 135, 1-methyl-N-(2-methyl-4-(6-(trifluoromethyl)pyrido[3,2-d]pyrimidin-2-yl)phenyl)-1H-pyrazole-5-carboxamide]"
14,< 200 nM,"Cc1cc(-c2ncc3cc(C(F)(F)F)ccc3n2)ccc1N(C)C(=O)c1cc(C(N)=O)nn1C [Example 222, N5,1-dimethyl-N5-(2-methyl-4-(6-(trifluoromethyl)quinazolin-2-yl)phenyl)-1H-pyrazole-3,5-dicarboxamide]"
